# Assay results published in US12403169B2, “Compositions and methods related to Rhamnus prinoides (gesho) extract for the inhibition of polymicrobial biofilm formation” (GEORGIA STATE UNIVERSITY RESEARCH FOUNDATION, INC., priority 2018, dated 2025).
# Columns and labels:
# [1] = system: Staphylococcus aureus biofilm formation; assay: microbe, parasite or virus in culture; conditions: for IC50 / CC50: Staphylococcus aureus; for IC50: 24 h, read-out: BP50; for CC50: read-out: category based on BP50 and LC50; for anti-biofilm activity (words): pure compounds; for effect on biofilm formation: evaluated at 0.8% and 3%
# Method: Staphylococcus aureus and Streptococcus mutans biofilms were grown in Luria-Bertani (LB) broth and brain-heart infusion (BHI) medium containing 0.5% sucrose, respectively. Biofilm formation was assessed using a polystyrene 96 well microtiter plate crystal violet assay. Overnight broth cultures were diluted to an initial optical density (OD600) of 0.01 in fresh media and combined with gesho extract to obtain a final concentration of 7 mg/ml. Treatments were then serially diluted to final extract concentrations of 5, 3, 1, 0.5 and 0.25 mg/ml. Negative controls consisted of cells diluted to an initial optical density (OD600) of 0.01 in growth media without plant extract. 100 μl of treated and untreated samples were added to each well of a microtiter plate and incubated at 37° C. for 24 hours. After 24 hours, planktonic cells and spent growth media were removed from each well and the plate was washed three times in sterile water. Biofilms were then stained with 150 μl of 0.1% crystal violet for 15 minutes at 200 rpm. Excess dye was removed via washing in sterile water and the plate was allowed to air dry.
# Staphylococcus aureus and Pseudomonas aeruginosa biofilms were grown in LB broth and PBM-glucose, respectively. Biofilm formation was assessed using a polystyrene 96 well microtiter plate crystal violet assay. […] DMSO was added to solubilize the treatments. Negative controls consisted of cells diluted to an initial OD600 of 0.01 in growth media without treatment. 100 μl of treated and untreated samples were added to each well of a microtiter plate and incubated at 37° C. for 24 h. After 24 h, planktonic cells and spent growth media were removed from each well and the plate was washed 3 times in sterile water. Biofilms were then stained with 150 μl of 0.1% crystal violet for 15 min at 200 rpm. Excess dye was removed via washing in sterile water and the plate was allowed to air dry.
# Biofilm formation was assessed using a polystyrene 96 well microtiter plate crystal violet assay.^23 Overnight broth cultures were diluted to an initial OD600 of 0.01 in fresh LB and combined with a target compound to obtain a final concentration of 7 mg/ml. Treatments were then serially diluted to final extract concentrations of 5, 3, 1, 0.5 and 0.25 mg/ml. No vehicles were added to solubilize the treatments. Untreated cells served as negative controls. 100 μl of treated and untreated samples were added to each well of a microtiter plate and incubated at 37° C. for 24 h. After 24 h, planktonic cells and spent growth media were removed from each well and the plate was washed 3 times in sterile water. Biofilms were then stained with 150 μl of 0.1% crystal violet for 15 min at 200 rpm. Excess dye was removed via washing in sterile water and the plate was allowed to air dry. […] The molarity of each treatment was calculated using excel.
# [2] = system: Staphylococcus aureus hydrophobicity; assay: Hydrophobicity test (microbial adherence to hydrocarbon); type: cell-based; conditions: 0.2 or 0.4 mg/mL, 24 h
# Method: Hydrophobicity analysis was conducted according to Ciccio, et al., 2015 with a few modifications. Three milliliters of Staphylococcus aureus cultures were grown in the presence of 4-ethoxybenzoic acid (0.2 or 0.4 mg/mL) or methyl gallate (0.2 or 0.4 mg/mL) for 24 h at 37° C. with shaking at 200 rpm. Cultures were diluted to an OD600 of 0.6 and washed with 1 mL PBS. 5 mL of the inoculum was produced, 1 mL was removed for plating on growth agar and 1 mL of hexadecane was applied to the air-liquid interface or the remaining 4 mL. Hexadecane samples were vortexed for 1 min and the phases allowed to separate for 15 minutes at room temperature. 1 mL of the aqueous layer was removed and plated on growth agar. Agar plates were incubated at 37° C. overnight and plate counts were conducted the following day. Results were interpreted as the percent of cells present in the aqueous layer prior to (A0) and after (A1) the addition of hexadecane [(A0−A1)/A0]*100.
# [3] = system: Staphylococcus aureus biofilms; assay: Staphylococcus aureus biofilm killing assay (resazurin); type: cell-based, Staphylococcus aureus ATCC 6538; conditions: combination with vancomycin at its MBEC
# Method: Staphylococcus aureus biofilms were formed as described above. Staphylococcus aureus biofilms were grown in LB broth. […] […]. Negative controls consisted of 100 μL of fresh LB without compound or antibiotic. […] 100 μL of 10 μg/mL resazurin in LB was added to each biofilm and the plate was statically incubated at 37° C. for 3 hrs. During incubation, fluorescence intensity was measured at λex=570 nm λem=590 nm every 6 minutes using an Enspire fluorescence plate reader. Data was normalized to the emission at t=0 and the rates of resazurin conversion to resorufin was calculated to identify the time at which maximum fluorescence was achieved.
# [4] = system: Staphylococcus aureus growth; assay: Staphylococcus aureus growth curve; type: cell-based, Staphylococcus aureus ATCC 6538
# Method: 2 mL of each treatment was added to 19 culture tubes and the samples were incubated for 24 h at 37° C. with shaking at 200 rpm. 1 mL of each sample was transferred to a cuvette and the absorbance measurements at 600 nm were taken every hour for 9 hours. 24 h measurements were taken the following day. Untreated samples and samples containing 1.6 μg/mL vancomycin served as a negative and positive controls, respectively. Growth rates were calculated using the slope of the log phase of growth (t=0 h and t=4 h).
# [5] = system: Staphylococcus aureus stationary phase planktonic cells; conditions: pure compounds, with or without 1% DMSO
# Method: To assess the viability of stationary phase planktonic cell, a growth agar based assay was conducted. Spent media containing stationary phase planktonic cells was collected after a biofilm formation assay. Collected cells were serially diluted in PBS and dilutions were radially plated in 10 μl volumes on growth medium. Agar plates were incubated at 37° C. overnight to allow for colony formation. Plate counts were used to assess viability.
# To assess the viability of stationary phase planktonic cells, a growth agar-based assay was conducted. Spent media containing stationary phase planktonic cells were collected from microtiter plates after the conclusion of each biofilm formation assay. The collected cells were serially diluted (1:10) in PBS and dilutions were radially plated in 10 μl volumes on growth medium. Agar plates were incubated at 37° C. overnight to allow for colony formation and plate counts were used to assess viability. Colony forming units per milliliter of culture (CFU/mL) was calculated by dividing the colony counts (C) by the volume added (V) multiplied by the dilution factor (D): […]
# [6] = system: Staphylococcus aureus log-phase planktonic cells; assay: Log-phase cell antimicrobial assay; type: cell-based, Staphylococcus aureus ATCC 6538; conditions: pure compounds, with or without 1% DMSO
# Method: Bacteria were inoculated in 20 ml of growth media at an initial optical density (OD600) of 0.01 and incubated at 37° C., 200 rpm until log-phase was reached. One milliliter of log-phase cells was transferred to 1.5 ml microfuge tubes and growth media removed via centrifugation. Pelleted cells were washed twice with phosphate buffered saline (PBS) before resuspending the pellets in 1 ml of extract dissolved in PBS. Treatments were incubated at 37° C. for 1 hour then serially diluted in PBS and radially plated on growth agar.
# Bacteria were inoculated in 20 ml of growth media at an initial optical density (OD600) of 0.01 and incubated for 4±1 h at 37° C. with shaking at 200 rpm until log phase (OD600≈0.35) was reached. 1 ml of log-phase cells was transferred to 1.5 ml microfuge tubes and the growth medium was removed via centrifugation. Pelleted cells were washed twice with phosphate buffered saline (PBS) before resuspending the pellets in 1 ml of 4-ethoxybenzoic acid or methyl gallate with or without vancomycin dissolved in PBS. Treatments were incubated at 37° C. for 1 h and then serially diluted in PBS and radially plated on growth agar.
# [7] = system: biofilm; assay: Screen of other compounds for anti-biofilm effect; type: cell-based
smiles,measurement,setting,value
COC(=O)c1cc(O)c(O)c(O)c1 [methyl gallate],IC50,[1],0.82 mM
same,CC50,[1],< 7.5 mM
same,hydrophobicity of S. aureus,[2],decreased the hydrophobicity
same,synergism with vancomycin in biofilm killing,[3],did not exhibit synergism
same,Percent attenuation,[4]; 1.1 mM,30%
same,Growth rate,"[4]; 1.1 mM, t=0 to t=4 h",0.77 log replications/hr
same,Percent attenuation,[4]; 1.2 mM,46%
same,Growth rate,"[4]; 1.2 mM, t=0 to t=4 h",0.59 log replications/hr
"O=C(O)c1ccccc1O [salicylic acid, 2-hydroxybenzoic acid]",IC50,[1],38.5 mM
same,CC50,[1],> 7.5 mM
O=C(O)c1cccc(O)c1 [3-hydroxybenzoic acid],IC50,[1],9.6 mM
same,CC50,[1],< 15 mM
"O=C(O)c1ccc(O)cc1 [p-hydroxybenzoic acid, 4-hydroxybenzoic acid]",IC50,[1],8 mM
same,CC50,[1],< 15 mM
O=C(O)c1cc(O)c(O)c(O)c1 [gallic acid],IC50,[1],17.3 mM
same,CC50,[1],> 7.5 mM
"O=C(O)c1cccc(O)c1O [pyrocatechuic acid, 2,3-dihydroxybenzoic acid]",IC50,[1],4.8 mM
same,CC50,[1],< 15 mM
"CCOC(=O)c1ccc(OCC)cc1 [EEB, ethyl 4-ethoxybenzoate]",antibacterial activity against stationary phase cells,[5],did not show antibacterial activity
same,CC50,[1],> 7.5 mM
same,effect of DMSO on anti-biofilm activity,[1]; combined with 1% DMSO,presence of DMSO increased the anti-biofilm activity of EEB
same,anti-biofilm activity (words),[1],significant anti-biofilm activity
same,anti-biofilm activity (words),[1]; listed as ethyl 4-ethoxybenzoate,anti-biofilm activity
same,antibacterial activity against log phase cells,[6],did not show antibacterial activity
"O=C(O)c1ccccc1 [benzoic acid, reference compound]",effect on biofilm formation,[1],Neither benzoic acid nor 2-pentanone had a statistically significant effect on biofilm formation
"CN[C@H](CC(C)C)C(=O)N[C@H]1C(=O)N[C@@H](CC(N)=O)C(=O)N[C@H]2C(=O)N[C@H]3C(=O)N[C@H](C(=O)N[C@H](C(=O)O)c4cc(O)cc(O)c4-c4cc3ccc4O)[C@H](O)c3ccc(c(Cl)c3)Oc3cc2cc(c3O[C@@H]2O[C@H](CO)[C@@H](O)[C@H](O)[C@H]2O[C@H]2C[C@](C)(N)[C@H](O)[C@H](C)O2)Oc2ccc(cc2Cl)[C@H]1O [vancomycin, reference compound]",Growth rate,"[4]; 1.1 μM, positive control",0.0 log replications/hr
same,Percent attenuation,"[4]; 1.1 μM, positive control",100%
"O=C(O)c1cc(O)ccc1O [gentisic acid, 2,5-dihydroxybenzoic acid]",IC50,[1],9.2 mM
CCOc1ccc(C(=O)O)cc1 [4-ethoxybenzoic acid],IC50,[1],1.6 mM
same,CC50,[1],< 7.5 mM
same,hydrophobicity of S. aureus,[2],decreased the hydrophobicity
same,synergism with vancomycin in biofilm killing,[3],synergistic effects
same,Percent attenuation,[4]; 1.2 mM,12%
same,Growth rate,"[4]; 1.2 mM, t=0 to t=4 h",0.97 log replications/hr
same,Percent attenuation,[4]; 2.4 mM,47%
same,Growth rate,"[4]; 2.4 mM, t=0 to t=4 h",0.58 log replications/hr
CCCOC(=O)c1cc(O)c(O)c(O)c1 [propyl gallate],IC50,[1],2.9 mM
same,CC50,[1],< 15 mM
"CCCC(C)=O [2-pentanone, reference compound]",effect on biofilm formation,[1],Neither benzoic acid nor 2-pentanone had a statistically significant effect on biofilm formation
"COC(=O)c1ccc(O)cc1 [methyl paraben, 4-hydroxybenzoic acid methyl ester]",Percent attenuation,[4]; 5.2 mM,25%
same,Growth rate,"[4]; 5.2 mM, t=0 to t=4 h",0.83 log replications/hr
CCOC(=O)c1cc(O)c(O)c(O)c1 [ethyl gallate],IC50,[1],6.7 mM
same,CC50,[1],< 15 mM
"O=C(O)c1ccc(O)c(O)c1 [protocatechuic acid, 3,4-dihydroxybenzoic acid]",IC50,[1],14.4 mM
same,CC50,[1],< 15 mM
CCCCCCCCC(C)O (stereo not shown) [2-decanol],anti-biofilm effect,[7],anti-biofilm effect
